Broadly, the IC50 is the midpoint of a concentration-inhibition curve. High values mean weaker potency, low ones greater potency.

Drawing on patent US20260132127A1, “NOVEL SPIRO COMPOUND” (MITSUBISHI TANABE PHARMA CORPORATION, priority 2021, published 2026), this text covers IC50 for 20 compounds.

The target of the test is T1, human TRH-DE (Homo sapiens, UniProt Q9UKU6).
T1 construct: expressed in transfected cells; host or cells: Expi 293 cells (transient expression), membrane fraction
T1 sequence (Q9UKU6 1-1069): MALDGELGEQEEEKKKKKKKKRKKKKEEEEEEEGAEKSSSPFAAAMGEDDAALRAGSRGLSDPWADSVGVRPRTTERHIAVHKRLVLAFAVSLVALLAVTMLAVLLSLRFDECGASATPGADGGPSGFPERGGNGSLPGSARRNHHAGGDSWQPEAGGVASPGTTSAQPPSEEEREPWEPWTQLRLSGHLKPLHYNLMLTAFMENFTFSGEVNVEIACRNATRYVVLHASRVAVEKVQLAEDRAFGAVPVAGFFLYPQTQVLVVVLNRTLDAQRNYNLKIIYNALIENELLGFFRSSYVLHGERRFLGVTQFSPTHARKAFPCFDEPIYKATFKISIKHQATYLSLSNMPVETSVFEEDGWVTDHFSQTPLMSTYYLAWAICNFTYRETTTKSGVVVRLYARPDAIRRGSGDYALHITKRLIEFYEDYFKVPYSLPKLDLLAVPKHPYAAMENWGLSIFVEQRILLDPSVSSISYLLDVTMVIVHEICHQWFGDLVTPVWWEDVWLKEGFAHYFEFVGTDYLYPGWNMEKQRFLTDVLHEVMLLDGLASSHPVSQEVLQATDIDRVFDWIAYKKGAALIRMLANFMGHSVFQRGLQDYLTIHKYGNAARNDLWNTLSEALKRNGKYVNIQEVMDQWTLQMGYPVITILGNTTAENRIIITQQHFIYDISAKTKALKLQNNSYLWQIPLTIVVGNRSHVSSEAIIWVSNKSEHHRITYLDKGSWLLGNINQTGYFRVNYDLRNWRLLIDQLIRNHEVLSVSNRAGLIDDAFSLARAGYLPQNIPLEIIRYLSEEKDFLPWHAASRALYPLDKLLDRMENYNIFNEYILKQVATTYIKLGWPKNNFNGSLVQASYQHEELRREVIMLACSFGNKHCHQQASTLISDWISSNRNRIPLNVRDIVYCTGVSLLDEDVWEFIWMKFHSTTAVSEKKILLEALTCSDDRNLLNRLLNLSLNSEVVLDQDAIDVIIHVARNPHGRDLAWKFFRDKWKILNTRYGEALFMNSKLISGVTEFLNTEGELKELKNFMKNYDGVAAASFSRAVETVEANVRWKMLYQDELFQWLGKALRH
The experiment in a line: TRH-DE inhibition test (RapidFire MS measurement of product Cyclo (His-Pro)). The test is classed as biochemical. The following applies: membrane fraction of Expi 293 cells expressing human TRH-DE; 10 μM TRH substrate; room temperature, 2 hours; 16-point concentration test. The method in brief:
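Membrane fraction from Expi 293 cells transiently expressing human TRH-DE, at 4 μg/ml in phosphate buffer pH 7.4 with 200 μM bacitracin, reacted with compound and 10 μM substrate for 2 h at room temperature. Cyclo(His-Pro) measured by RapidFire MS against an isotope internal standard. IC50 from 16-point curves.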
In the case of `C[C@@H]1CNC(=O)N1C1CC2(C1)CN(S(=O)(=O)c1ccccc1F)C2` [Example 435, (5R)-1-[2-(2-fluorophenyl)sulfonyl-2-azaspiro[3.3]heptan-6-yl]-5-methylimidazolidin-2-one], the midpoint of inhibition, the IC50, lay at 0.492 µM.

For `CC1CSCC(=O)N1C1CC2(C1)CN(S(=O)(=O)c1ccccc1F)C2` (centres unmarked) [Example 441, 4-[2-(2-fluorophenyl)sulfonyl-2-azaspiro[3.3]heptan-6-yl]-5-methylthiomorpholin-3-one], the IC50 was 0.247 µM.

For `C[C@@H]1CCNCC(=O)N1C1CC2(C1)CN(S(=O)(=O)c1ccccc1F)C2` [Example 442, (7R)-1-[2-(2-fluorophenyl)sulfonyl-2-azaspiro[3.3]heptan-6-yl]-7-methyl-1,4-diazepan-2-one], the concentration for half-maximal inhibition (IC50) was found to be 0.551 µM.

For `C[C@@H]1CCN(CC2CC2)CC(=O)N1C1CC2(C1)CN(S(=O)(=O)c1ccccc1F)C2` [Example 443, (7R)-4-(cyclopropylmethyl)-1-[2-(2-fluorophenyl)sulfonyl-2-azaspiro[3.3]heptan-6-yl]-7-methyl-1,4-diazepan-2-one], the IC50 was determined as 0.157 µM.

The compound `C[C@@H]1CCN(C)CC(=O)N1C1CC2(C1)CN(S(=O)(=O)c1ccccc1F)C2` [Example 444] gave an IC50 of 0.789 µM.

Compound `C[C@@H]1CCN(Cc2ccccc2)CC(=O)N1C1CC2(C1)CN(S(=O)(=O)c1ccccc1F)C2` [Example 446] had an IC50 of 0.171 µM.

Take `C[C@@H]1CCN(C2CCOCC2)CC(=O)N1C1CC2(C1)CN(S(=O)(=O)c1ccccc1F)C2` [Example 447]: the IC50 stood at 0.403 µM.

Regarding `C[C@@H]1CCN(CCC(F)(F)F)CC(=O)N1C1CC2(C1)CN(S(=O)(=O)c1ccccc1F)C2` [Example 448], the IC50 turned out to be 0.474 µM. This IC50 and that of the compound before are within 1.5-fold of each other.

`C[C@@H]1CCN(C(=O)c2cc[nH]n2)CC(=O)N1C1CC2(C1)CN(S(=O)(=O)c1ccccc1F)C2` [Example 449] gave an IC50 of 0.065 µM. Against the preceding compound, the IC50 is about 7.3-fold lower.

`C[C@@H]1CCN(C(=O)c2cccs2)CC(=O)N1C1CC2(C1)CN(S(=O)(=O)c1ccccc1F)C2` [Example 450] yielded an IC50 of 0.081 µM.

Compound `C[C@@H]1CCN(C(=O)c2ccc3ccccc3c2)CC(=O)N1C1CC2(C1)CN(S(=O)(=O)c1ccccc1F)C2` [Example 451] yielded an IC50 of 0.076 µM.

In the case of `C[C@@H]1CCN(C(=O)C2(F)CC2)CC(=O)N1C1CC2(C1)CN(S(=O)(=O)c1ccccc1F)C2` [Example 452], the IC50 came out at 0.088 µM.

Take `COCCC(=O)N1CC[C@@H](C)N(C2CC3(C2)CN(S(=O)(=O)c2ccccc2F)C3)C(=O)C1` [Example 453]: the IC50 was 0.348 µM.

For the compound `C[C@@H]1CCN(C(=O)c2ccccc2)CC(=O)N1C1CC2(C1)CN(S(=O)(=O)c1ccccc1F)C2` [Example 454], half-maximal inhibition (IC50) required 0.07 µM.

Compound `C[C@@H]1CCN(S(C)(=O)=O)CC(=O)N1C1CC2(C1)CN(S(=O)(=O)c1ccccc1F)C2` [Example 455, (7R)-1-[2-(2-fluorophenyl)sulfonyl-2-azaspiro[3.3]heptan-6-yl]-7-methyl-4-methylsulfonyl-1,4-diazepan-2-one] gave a 50% inhibitory concentration (IC50) of 0.291 µM. Against the preceding compound, the IC50 is about 4.2-fold higher.

`C[C@@H]1CCN(c2ccccn2)CC(=O)N1C1CC2(C1)CN(S(=O)(=O)c1ccccc1F)C2` [Example 456, (7R)-1-[2-(2-fluorophenyl)sulfonyl-2-azaspiro[3.3]heptan-6-yl]-7-methyl-4-pyridin-2-yl-1,4-diazepan-2-one] yielded an IC50 of 0.09 µM.

For the compound `CC1CCOCC(=O)N1C1CC2(C1)CN(S(=O)(=O)c1ccccc1F)C2` (centres unmarked) [Example 457, 4-[2-(2-fluorophenyl)sulfonyl-2-azaspiro[3.3]heptan-6-yl]-5-methyl-1,4-oxazepan-3-one], the IC50 is 0.171 µM.

For the compound `C[C@@H]1COCC(=O)N1C1CC2(C1)CN(S(=O)(=O)c1ccccc1F)C2` [Example 458, (5R)-4-[2-(2-fluorophenyl)sulfonyl-2-azaspiro[3.3]heptan-6-yl]-5-methylmorpholin-3-one], the IC50 is 0.28 µM. This IC50 lies about 1.6-fold higher than the previous one.

Take `CC1CCCCC(=O)N1C1CC2(C1)CN(S(=O)(=O)c1ccccc1F)C2` (centres unmarked) [Example 459, 1-[2-(2-fluorophenyl)sulfonyl-2-azaspiro[3.3]heptan-6-yl]-7-methylazepan-2-one]: half-maximal inhibition (IC50) was put at 0.176 µM.

On to `C[C@@H]1COCCC(=O)N1C1CC2(C1)CN(S(=O)(=O)c1ccccc1F)C2` [Example 460, (3R)-4-[2-(2-fluorophenyl)sulfonyl-2-azaspiro[3.3]heptan-6-yl]-3-methyl-1,4-oxazepan-5-one], for which the IC50 turned out to be 0.424 µM. Against the preceding compound, the IC50 is about 2.4-fold higher.
